Results: PubChem BioAssay (NCI)
Where “and” joins values, the source holds several entries; their conditions need not be identical. Equal values may be shown once.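 Method: 48-hour compound exposure of cells in 96-well plates, five concentrations, linear interpolation of endpoints. Here, GI50 denotes the concentration required for 50% inhibition of growth. TGI is the concentration that stops growth completely.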 Where a SMILES comes first, the peptide text is derived from it. The star is where a group is joined. Boc = CC(C)(C)OC(=O)*

Test system: M14 melanoma
Test: DTP human tumour cell line panel, 48 h

Structure (SMILES) | GI50 [µM] | TGI [µM]
COc1ccc(Cn2c(N)c(S(=O)(=O)c3ccc(Cl)cc3)c3nc(C#N)c(C#N)nc32)cc1 | 24.8 | > 50

Test system: OVCAR-4 ovarian
Test: DTP human tumour cell line panel, 48 h

Structure (SMILES) | GI50 [µM] | TGI
CS(=O)(=O)Nc1cc(-c2ccc3ncnc(Nc4c(Cl)ccc5c4OCO5)c3c2)cnc1Cl | 0.348 | 4.45 µM
COc1ccccc1Nc1ncc(-c2ccccc2)o1 | > 25 | > 25 µM
Nc1ccn(C2OC(CO)C(O)C2O)c(=O)n1 (stereo unspecified) | – | > 500 µM
CN1CC[C@@H](c2c(O)cc(O)c3c(=O)cc(-c4ccc(C(F)(F)F)cc4Cl)oc23)[C@@H]1CO | 23.6 | 83.2 µM
O=C(Nc1ccc(Cl)c(C(F)(F)F)c1)c1ccc(NC2=C(Cl)C(=O)N(Cc3ccccc3)C2=O)cc1 | 11.4 | 69.9 µM
Nc1c(C(=O)c2ccccc2)cnn1-c1ccc(F)cc1 | > 25 | > 25 µM
COC(=O)c1ccc(-c2c(C#N)[n+](=O)c3cc(Cl)c(Cl)cc3n2[O-])cc1 | 19.7 | 38 µM
C#Cc1nc(Nc2cc(C)[nH]n2)c2ccccc2n1 | 0.347 | –
COC(=O)C(C)NC(=O)C(CCSC)NC(=O)C(Cc1ccccc1)NC(=O)OC(C)(C)C (stereo not drawn) (Boc-Phe-Met-Ala-OMe; configuration not given here) | – | > 100 µM
C/C(=N\NC(=S)N1CCCCCC1)c1ccccn1 | < 0.0412 | 2.52 µM and 3.25 µM
Oc1ccc2ccccc2c1N=Nc1ccc(Br)cc1 | – | 96.3 µM
CC(C)=CCc1cc2c(cc1O)OC[C@H]1c3cc4c(cc3O[C@@H]21)OCO4 | – | > 100 µM
COc1cc2c3c(c1OC)-c1cc4c(cc1CC3(C#N)N(C(=O)c1ccccc1)CC2)OCO4 (stereo unspecified) | – | 43 µM
COC(=O)C1=CN(CC2=CC(=O)C(C)=CC2=O)C=C(C(=O)OC)C1c1cccc(OC)c1 | 25.7 | > 100 µM
COc1ccc(Cn2c(N)c(S(=O)(=O)c3ccc(Cl)cc3)c3nc(C#N)c(C#N)nc32)cc1 | 25.2 | > 50 µM

Test system: OVCAR-8 ovarian
Test: DTP human tumour cell line panel, 48 h

Structure (SMILES) | GI50 [µM] | TGI
CS(=O)(=O)Nc1cc(-c2ccc3ncnc(Nc4c(Cl)ccc5c4OCO5)c3c2)cnc1Cl | 0.387 | –
COc1ccccc1Nc1ncc(-c2ccccc2)o1 | > 25 | > 25 µM
Nc1ccn(C2OC(CO)C(O)C2O)c(=O)n1 (stereo unspecified) | 0.392 | > 500 µM
CN1CC[C@@H](c2c(O)cc(O)c3c(=O)cc(-c4ccc(C(F)(F)F)cc4Cl)oc23)[C@@H]1CO | 18.2 | 42 µM
O=C(Nc1ccc(Cl)c(C(F)(F)F)c1)c1ccc(NC2=C(Cl)C(=O)N(Cc3ccccc3)C2=O)cc1 | 3.66 | > 100 µM
Nc1c(C(=O)c2ccccc2)cnn1-c1ccc(F)cc1 | > 25 | > 25 µM
COC(=O)c1ccc(-c2c(C#N)[n+](=O)c3cc(Cl)c(Cl)cc3n2[O-])cc1 | 24.3 | 55.6 µM
C#Cc1nc(Nc2cc(C)[nH]n2)c2ccccc2n1 | 0.325 | > 100 µM
COC(=O)C(C)NC(=O)C(CCSC)NC(=O)C(Cc1ccccc1)NC(=O)OC(C)(C)C (stereo not drawn) (Boc-Phe-Met-Ala-OMe; configuration not given here) | – | > 100 µM
C/C(=N\NC(=S)N1CCCCCC1)c1ccccn1 | – | 3.48 µM and 4.57 µM
Oc1ccc2ccccc2c1N=Nc1ccc(Br)cc1 | – | > 100 µM
CC(C)=CCc1cc2c(cc1O)OC[C@H]1c3cc4c(cc3O[C@@H]21)OCO4 | – | > 100 µM
COc1cc2c3c(c1OC)-c1cc4c(cc1CC3(C#N)N(C(=O)c1ccccc1)CC2)OCO4 (stereo unspecified) | – | > 74.2 µM
COC(=O)C1=CN(CC2=CC(=O)C(C)=CC2=O)C=C(C(=O)OC)C1c1cccc(OC)c1 | > 51.9 | > 100 µM
COc1ccc(Cn2c(N)c(S(=O)(=O)c3ccc(Cl)cc3)c3nc(C#N)c(C#N)nc32)cc1 | 7.55 | > 50 µM

Test system: PC-3 prostate
Test: DTP human tumour cell line panel, 48 h

Structure (SMILES) | GI50 [µM] | TGI
CS(=O)(=O)Nc1cc(-c2ccc3ncnc(Nc4c(Cl)ccc5c4OCO5)c3c2)cnc1Cl | 0.178 | 1.77 µM
COc1ccccc1Nc1ncc(-c2ccccc2)o1 | > 25 | > 25 µM
Nc1ccn(C2OC(CO)C(O)C2O)c(=O)n1 (stereo unspecified) | > 46.3 | > 500 µM
CN1CC[C@@H](c2c(O)cc(O)c3c(=O)cc(-c4ccc(C(F)(F)F)cc4Cl)oc23)[C@@H]1CO | 19 | 44.5 µM
O=C(Nc1ccc(Cl)c(C(F)(F)F)c1)c1ccc(NC2=C(Cl)C(=O)N(Cc3ccccc3)C2=O)cc1 | 3.39 | 11.8 µM
Nc1c(C(=O)c2ccccc2)cnn1-c1ccc(F)cc1 | > 25 | > 25 µM
COC(=O)c1ccc(-c2c(C#N)[n+](=O)c3cc(Cl)c(Cl)cc3n2[O-])cc1 | 9.79 | 27.9 µM
C#Cc1nc(Nc2cc(C)[nH]n2)c2ccccc2n1 | 0.317 | 1.4 µM
COC(=O)C(C)NC(=O)C(CCSC)NC(=O)C(Cc1ccccc1)NC(=O)OC(C)(C)C (stereo not drawn) (Boc-Phe-Met-Ala-OMe; configuration not given here) | – | > 100 µM
C/C(=N\NC(=S)N1CCCCCC1)c1ccccn1 | 0.183 | 2.9 µM and 2.61 µM
Oc1ccc2ccccc2c1N=Nc1ccc(Br)cc1 | – | > 100 µM
CC(C)=CCc1cc2c(cc1O)OC[C@H]1c3cc4c(cc3O[C@@H]21)OCO4 | – | > 100 µM
COc1cc2c3c(c1OC)-c1cc4c(cc1CC3(C#N)N(C(=O)c1ccccc1)CC2)OCO4 (stereo unspecified) | – | > 100 µM
COC(=O)C1=CN(CC2=CC(=O)C(C)=CC2=O)C=C(C(=O)OC)C1c1cccc(OC)c1 | 8 | 29.9 µM
COc1ccc(Cn2c(N)c(S(=O)(=O)c3ccc(Cl)cc3)c3nc(C#N)c(C#N)nc32)cc1 | 33.5 | > 50 µM

Test system: SNB-19 CNS
Test: DTP human tumour cell line panel, 48 h

Structure (SMILES) | GI50 [µM] | TGI
CS(=O)(=O)Nc1cc(-c2ccc3ncnc(Nc4c(Cl)ccc5c4OCO5)c3c2)cnc1Cl | 0.244 | 3.42 µM
COc1ccccc1Nc1ncc(-c2ccccc2)o1 | > 25 | > 25 µM
Nc1ccn(C2OC(CO)C(O)C2O)c(=O)n1 (stereo unspecified) | 2.19 | > 100 µM and 469 µM and > 500 µM
CN1CC[C@@H](c2c(O)cc(O)c3c(=O)cc(-c4ccc(C(F)(F)F)cc4Cl)oc23)[C@@H]1CO | 21 | 62.7 µM
O=C(Nc1ccc(Cl)c(C(F)(F)F)c1)c1ccc(NC2=C(Cl)C(=O)N(Cc3ccccc3)C2=O)cc1 | 29.2 | > 100 µM
Nc1c(C(=O)c2ccccc2)cnn1-c1ccc(F)cc1 | > 25 | > 25 µM
COC(=O)c1ccc(-c2c(C#N)[n+](=O)c3cc(Cl)c(Cl)cc3n2[O-])cc1 | 18.2 | 38.9 µM
C#Cc1nc(Nc2cc(C)[nH]n2)c2ccccc2n1 | 2.27 | 81.1 µM
COC(=O)C(C)NC(=O)C(CCSC)NC(=O)C(Cc1ccccc1)NC(=O)OC(C)(C)C (stereo not drawn) (Boc-Phe-Met-Ala-OMe; configuration not given here) | – | > 100 µM
C/C(=N\NC(=S)N1CCCCCC1)c1ccccn1 | 0.101 | 4.38 µM and 6.44 µM
Oc1ccc2ccccc2c1N=Nc1ccc(Br)cc1 | – | > 100 µM
CC(C)=CCc1cc2c(cc1O)OC[C@H]1c3cc4c(cc3O[C@@H]21)OCO4 | – | > 100 µM
COc1cc2c3c(c1OC)-c1cc4c(cc1CC3(C#N)N(C(=O)c1ccccc1)CC2)OCO4 (stereo unspecified) | – | 46 µM
COC(=O)C1=CN(CC2=CC(=O)C(C)=CC2=O)C=C(C(=O)OC)C1c1cccc(OC)c1 | 26 | > 79.2 µM
COc1ccc(Cn2c(N)c(S(=O)(=O)c3ccc(Cl)cc3)c3nc(C#N)c(C#N)nc32)cc1 | 18 | > 50 µM

Test system: TK-10 renal
Test: DTP human tumour cell line panel, 48 h

Structure (SMILES) | GI50 | TGI
CS(=O)(=O)Nc1cc(-c2ccc3ncnc(Nc4c(Cl)ccc5c4OCO5)c3c2)cnc1Cl | 0.047 µM | 0.888 µM
COc1ccccc1Nc1ncc(-c2ccccc2)o1 | > 25 µM | > 25 µM
Nc1ccn(C2OC(CO)C(O)C2O)c(=O)n1 (stereo unspecified) | – | > 500 µM
CN1CC[C@@H](c2c(O)cc(O)c3c(=O)cc(-c4ccc(C(F)(F)F)cc4Cl)oc23)[C@@H]1CO | 14.7 µM | 43.5 µM
O=C(Nc1ccc(Cl)c(C(F)(F)F)c1)c1ccc(NC2=C(Cl)C(=O)N(Cc3ccccc3)C2=O)cc1 | 19.4 µM | 34.4 µM
Nc1c(C(=O)c2ccccc2)cnn1-c1ccc(F)cc1 | > 25 µM | > 25 µM
COC(=O)c1ccc(-c2c(C#N)[n+](=O)c3cc(Cl)c(Cl)cc3n2[O-])cc1 | 33.6 µM | 95.1 µM
C#Cc1nc(Nc2cc(C)[nH]n2)c2ccccc2n1 | 0.427 µM | 2.91 µM
COC(=O)C(C)NC(=O)C(CCSC)NC(=O)C(Cc1ccccc1)NC(=O)OC(C)(C)C (stereo not drawn) (Boc-Phe-Met-Ala-OMe; configuration not given here) | 4.41 µg/mL | –
C/C(=N\NC(=S)N1CCCCCC1)c1ccccn1 | – | 8.56 µM and 7.56 µM
Oc1ccc2ccccc2c1N=Nc1ccc(Br)cc1 | – | > 100 µM
CC(C)=CCc1cc2c(cc1O)OC[C@H]1c3cc4c(cc3O[C@@H]21)OCO4 | – | > 100 µM
COc1cc2c3c(c1OC)-c1cc4c(cc1CC3(C#N)N(C(=O)c1ccccc1)CC2)OCO4 (stereo unspecified) | – | 71 µM
COC(=O)C1=CN(CC2=CC(=O)C(C)=CC2=O)C=C(C(=O)OC)C1c1cccc(OC)c1 | 12.2 µM | 25.9 µM
COc1ccc(Cn2c(N)c(S(=O)(=O)c3ccc(Cl)cc3)c3nc(C#N)c(C#N)nc32)cc1 | 11.6 µM | 41.5 µM
